This test deals with Baculoviral IAP repeat-containing protein 2 (Homo sapiens) (UniProt Q13490). Description: Inhibition of human recombinant His-tagged cIAP1 protein BIR3 domain (250 to 350 amino acid residues) using biotinylated-Smac as substrate after overnight incubation by HTRF assay. (In TR-FRET formats the signal depends on donor and acceptor labels being close together.)
Baculoviral IAP repeat-containing protein 2 (Homo sapiens), sequence (Q13490 whole entry, looked up, the tested form may be a part): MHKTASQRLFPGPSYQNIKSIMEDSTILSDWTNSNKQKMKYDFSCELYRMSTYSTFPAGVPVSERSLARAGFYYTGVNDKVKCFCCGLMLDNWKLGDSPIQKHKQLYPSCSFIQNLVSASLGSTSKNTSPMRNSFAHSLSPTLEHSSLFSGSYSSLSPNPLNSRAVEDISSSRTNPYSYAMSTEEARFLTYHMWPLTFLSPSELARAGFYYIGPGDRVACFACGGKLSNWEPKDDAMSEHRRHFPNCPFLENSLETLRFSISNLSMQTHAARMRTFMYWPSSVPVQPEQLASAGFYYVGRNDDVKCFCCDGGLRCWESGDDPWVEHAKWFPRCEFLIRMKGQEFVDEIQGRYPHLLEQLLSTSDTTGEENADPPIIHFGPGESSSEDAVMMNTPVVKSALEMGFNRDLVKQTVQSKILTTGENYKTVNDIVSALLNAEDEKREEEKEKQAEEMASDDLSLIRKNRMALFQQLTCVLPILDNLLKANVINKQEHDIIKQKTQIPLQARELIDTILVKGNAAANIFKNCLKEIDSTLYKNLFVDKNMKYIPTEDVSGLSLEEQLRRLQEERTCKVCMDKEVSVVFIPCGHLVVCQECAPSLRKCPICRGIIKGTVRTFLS
With `CCO[C@@H]1C[C@@H]2CN(C(=O)[C@@H](NC(=O)[C@H](C)NC)C3CCC(F)(F)CC3)[C@H](C(=O)N[C@@H]3CCOc4ccccc43)CN2C1`, the IC50 (commonly the midpoint of a concentration-inhibition curve) worked out at 1.3 nM.
The value for `CN[C@@H](C)C(=O)N[C@H](C(=O)N1C[C@H]2C[C@@H](O)CN2C[C@H]1C(=O)N[C@@H]1CCOc2ccccc21)C1CCC(F)(F)CC1` was 4.9 nM.
The value for `CN[C@@H](C)C(=O)N[C@H](C(=O)N1C[C@H]2CC(F)(F)CN2C[C@H]1C(=O)N[C@@H]1CCOc2ccccc21)C1CCC(F)(F)CC1` was 1.7 nM.
On to `CN[C@@H](C)C(=O)N[C@H](C(=O)N1C[C@@H]2CCCN2C[C@H]1C(=O)N[C@@H]1CCOc2ccccc21)C1CCC(F)(F)CC1`, for which the IC50 came out at 2.5 nM.
Regarding `CN[C@@H](C)C(=O)N[C@H](C(=O)N1C[C@H]2CCCN2C[C@H]1C(=O)N[C@@H]1CCOc2ccccc21)C1CCOCC1`, the IC50 was found to be 3.4 nM.
For `CN[C@@H](C)C(=O)N[C@H](C(=O)N1C[C@H]2CCCN2C[C@H]1C(=O)N[C@@H]1CCOc2ccccc21)C1CCC(F)(F)CC1`, the IC50 is 3.2 nM.
The value for `CN[C@@H](C)C(=O)N[C@H](C(=O)N1C[C@H]2CCCN2C[C@H]1C(=O)N[C@@H]1CCOc2ccccc21)c1ccccc1` was 2.6 nM; that for `CN[C@@H](C)C(=O)N[C@H](C(=O)N1C[C@H]2CCCN2C[C@H]1C(=O)N[C@@H]1CCC(=O)c2ccccc21)C1CCCCC1` was 7.6 nM.
As for `CN[C@@H](C)C(=O)N[C@H](C(=O)N1C[C@H]2CCCN2C[C@H]1C(=O)N[C@@H]1CCC(F)(F)c2ccccc21)C1CCCCC1`, the IC50 stood at 4 nM.
`CN[C@@H](C)C(=O)N[C@H](C(=O)N1C[C@H]2CCCN2C[C@H]1C(=O)N[C@H]1CCCc2ccccc21)C1CCCCC1`: the IC50 turned out to be 1300 nM.
As for `CN[C@@H](C)C(=O)N[C@H](C(=O)N1C[C@H]2CCCN2C[C@H]1C(=O)N[C@@H]1CCCc2ccccc21)C1CCCCC1`, the IC50 was 2.7 nM.
For the compound `CN[C@@H](C)C(=O)N[C@H](C(=O)N1C[C@H]2CCCN2C[C@H]1C(=O)N[C@H](C)c1ccccc1)C1CCCCC1`, the IC50 was 14 nM.

The values above are taken from BindingDB's records for doi:10.1021/jm301674z (Takeda Pharmaceutical, 2013).
